Laboratory results reported in US11554122B2, “Fused pentacyclic imidazole derivatives as modulators of TNF activity” (UCB Biopharma SRL, priority 2018, dated 2023).

Molecular target: T1, TNFα (Homo sapiens, UniProt P01375)
T1 construct: a human whole blood assay driven by endogenously expressed TNFα; endogenous in cells; host or cells: EDTA anticoagulated human whole blood, stimulated with 1 ug/ml zymosan
Test: TNF human whole blood screening assay: CD11b expression on granulocytes after zymosan challenge
Format: cell-based
Conditions: whole blood IC50 multiplied by the unbound fraction (Fu) in human blood; read-out: free IC50 in the human whole blood assay
Protocol: Furthermore, the compounds in accordance with the present invention are potent inhibitors of CD11b expressed on granulocytes in human blood cells, when tested in the human whole blood assay as described herein.
TNF Human Whole Blood Screening Assay
The compounds according to the Examples were assessed in a human whole blood assay driven by endogenously expressed TNFα by measuring the expression of CD11b on granulocytes in human whole blood challenged with zymosan. Zymosan binds to TLR2 and other receptors, leading to NF-κB signalling which in turn induces the production of pro-inflammatory mediators, including TNFα. In turn, TNFα can stimulate the expression of CD11b on granulocytes.
Compounds were diluted from 10 mM DMSO stocks (final assay concentration of 0.2% DMSO) to generate a 10-point 2.5-fold serial dilution curve (for example, 20,000 nM to 5.3 nM final assay concentration). Diluted compound was preincubated with EDTA anticoagulated human whole blood for 60 minutes at 37° C. prior to stimulation with 1 ug/ml zymosan. After 3 hours stimulation with zymosan, the whole blood was stained with fluorescent labelled anti CD45 and anti CD11b antibodies. The samples were fixed and red blood cells lysed before analysis with a FACS CANTO II.
FACS (Fluoresceence Activated Cell Sorting) analysis was performed with FloJo software. SSC-A (Side Scatter Area of peak) and CD45 signal was used to identify granulocytes, followed by SSC-A and SSC-W (Side Scatter Width of peak) to select single cells. MESF (Molecules of Equivalent Soluble Fluorochrome) beads were used to calibrate the CD11b signal on single cell granulocytes. Activation of CD11b was inhibited in a dose dependent manner by the TNFα inhibitor.
Percentage inhibition of compounds was calculated against TNFα containing DMSO alone (control) and maximum inhibition generated with excess blocking anti-TNFα monoclonal antibody. An inhibition curve was constructed in ActivityBase using a 4 parameter logistic model (XLfit™). The point of inflexion between the fitted minimum and maximum effects of the inhibitor gives the IC50 value.
A calculated IC50 for the free compound (herein referred to as “free IC50”) that takes into account the extent of fraction unbound in blood was determined by multiplying the IC50 generated from the first assay (human whole blood screening assay) by the unbound fraction (Fu), generated from the second assay (human blood binding assay).

T1 sequence (P01375 77-233 limits assumed): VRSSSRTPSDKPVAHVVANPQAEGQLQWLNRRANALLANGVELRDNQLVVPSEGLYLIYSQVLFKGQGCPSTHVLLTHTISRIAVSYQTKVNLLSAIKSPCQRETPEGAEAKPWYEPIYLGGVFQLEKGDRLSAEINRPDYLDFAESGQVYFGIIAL

Compared with `C[C@]1(C#N)C[C@](O)(c2ncc(-c3ccc4nc5n(c4c3)[C@@H]3C[C@H]5NC(=O)c4cccc(OC(F)F)c43)cc2F)C1` [Example 5, 3-[5-[(1R,11R)-18-(difluoromethoxy)-13-oxo-2,9,12-triazapentacyclo[9.8.1.02,10.03,8.014,19]icosa-3,5,7,9,14(19),15,17-heptaen-5-yl]-3-fluoropyridin-2-yl]-3-hydroxy-1-methylcyclobutane-1-carbonitrile], `CN1C(=O)c2cccc(OC(F)F)c2[C@H]2C[C@@H]1c1nc3ccc(-c4cnc([C@]5(O)C[C@@](C)(C#N)C5)c(F)c4)cc3n12` [Example 4, 3-[5-[(1R,11R)-18-(difluoromethoxy)-12-methyl-13-oxo-2,9,12-triazapentacyclo[9.8.1.02,10.03,8.014,19]icosa-3,5,7,9,14(19),15,17-heptaen-5-yl]-3-fluoropyridin-2-yl]-3-hydroxy-1-methylcyclobutane-1-carbonitrile] is lower in IC50: roughly 5 nM for the first, less than 4 nM for the second. The second is the more potent here.

First: C[C@]1(C#N)C[C@](O)(c2ncc(-c3cc4c(cc3F)nc3n4[C@@H]4C[C@H]3NC(=O)c3cccc(OC(F)F)c34)cn2)C1 [Example 3, 3-[5-[(1R,11R)-18-(difluoromethoxy)-6-fluoro-13-oxo-2,9,12-triazapentacyclo[9.8.1.02,10.03,8.014,19]icosa-3(8),4,6,9,14(19),15,17-heptaen-5-yl]pyrimidin-2-yl]-3-hydroxy-1-methylcyclobutane-1-carbonitrile]
Second: C[C@]1(C#N)C[C@](O)(c2ncc(-c3ccc4nc5n(c4c3)[C@@H]3C[C@H]5NC(=O)c4cccc(OC(F)F)c43)cn2)C1 [Example 2, 3-[5-[(1R,11R)-18-(difluoromethoxy)-13-oxo-2,9,12-triazapentacyclo[9.8.1.02,10.03,8.014,19]icosa-3(8),4,6,9,14(19),15,17-heptaen-5-yl]pyrimidin-2-yl]-3-hydroxy-1-methylcyclobutane-1-carbonitrile]
The IC50 of the first is 2-fold lower: roughly 6 nM for the first, roughly 12 nM for the second. The first is the more potent here.

Going from `[2H]C([2H])([2H])N1C(=O)c2cccc(OC(F)F)c2[C@H]2C[C@@H]1c1nc3ccc(-c4cnc([C@]5(O)C[C@@](C)(C#N)C5)nc4)cc3n12` [Example 1, 3-[5-[(1R,11R)-18-(difluoromethoxy)-13-oxo-12-(trideuteriomethyl)-2,9,12-triazapentacyclo[9.8.1.02,10.03,8.014,19]icosa-3(8),4,6,9,14(19),15,17-heptaen-5-yl]pyrimidin-2-yl]-3-hydroxy-1-methylcyclobutane-1-carbonitrile] to `CN1C(=O)c2cccc(OC(F)F)c2[C@H]2C[C@@H]1c1nc3ccc(-c4cnc([C@]5(C#N)C[C@@](C)(O)C5)nc4)cc3n12` [Example 6, 1-[5-[(1R,11R)-18-(difluoromethoxy)-12-methyl-13-oxo-2,9,12-triazapentacyclo[9.8.1.02,10.03,8.014,19]icosa-3(8),4,6,9,14(19),15,17-heptaen-5-yl]pyrimidin-2-yl]-3-hydroxy-3-methylcyclobutane-1-carbonitrile], the IC50 falls from roughly 6 nM to less than 4 nM. The second is the more potent here.

`CN1C(=O)c2cccc(OC(F)F)c2[C@H]2C[C@@H]1c1nc3ccc(-c4cnc([C@]5(C#N)C[C@@](C)(O)C5)c(F)c4)cc3n12` [Example 7, 1-[5-[(1R,11R)-18-(difluoromethoxy)-12-methyl-13-oxo-2,9,12-triazapentacyclo[9.8.1.02,10.03,8.014,19]icosa-3(8),4,6,9,14(19),15,17-heptaen-5-yl]-3-fluoropyridin-2-yl]-3-hydroxy-3-methylcyclobutane-1-carbonitrile] showed an IC50 of less than 4 nM.
